In the SangsterLogP compilation one finds logP data, which are given here for eleven compounds.

A word on the logP: it is the decadic logarithm of the partition coefficient of the neutral form, usually between octanol and water. A higher logP goes with higher lipophilicity.

A short description of the data set: method code G-GLC, from DOI: 10.1021/es00162a015, PMID: 19995068.
The compound `Clc1ccc2c(c1)Oc1ccccc1O2` had a logP of 4.94.

Consider `Clc1c(Cl)c(Cl)c2c(c1Cl)Oc1ccccc1O2`, for which the logP was determined as 6.2.

Consider `Brc1c(Br)c(Br)c(-c2c(Br)c(Br)c(Br)c(Br)c2Br)c(Br)c1Br`, for which the logP was 8.58.

`Brc1ccc(-c2ccc(Br)cc2)cc1` had a logP of 5.72.

The compound `Cc1ccc(-c2ccc(C)cc2)cc1` showed a logP of 5.09.

Turning to `Clc1ccc2oc3ccc(Cl)cc3c2c1`, the logP came to 5.44.

For `Brc1ccccc1-c1ccccc1`, the logP stood at 4.59.

`Brc1cccc(-c2ccccc2)c1` came in with a logP of 4.85.

For `Brc1ccc(-c2ccccc2)cc1`, the logP was 4.96.

With `Brc1ccc(Br)c(-c2cc(Br)c(Br)cc2Br)c1`, the logP stood at 7.1.

The compound `Cc1ccc(-c2ccccc2)cc1` had a logP of 4.63.
